This experiment has as its target T1, E-selectin (Homo sapiens, UniProt P16581).
T1 construct: expressed in transfected cells
T1 sequence (P16581 22-610): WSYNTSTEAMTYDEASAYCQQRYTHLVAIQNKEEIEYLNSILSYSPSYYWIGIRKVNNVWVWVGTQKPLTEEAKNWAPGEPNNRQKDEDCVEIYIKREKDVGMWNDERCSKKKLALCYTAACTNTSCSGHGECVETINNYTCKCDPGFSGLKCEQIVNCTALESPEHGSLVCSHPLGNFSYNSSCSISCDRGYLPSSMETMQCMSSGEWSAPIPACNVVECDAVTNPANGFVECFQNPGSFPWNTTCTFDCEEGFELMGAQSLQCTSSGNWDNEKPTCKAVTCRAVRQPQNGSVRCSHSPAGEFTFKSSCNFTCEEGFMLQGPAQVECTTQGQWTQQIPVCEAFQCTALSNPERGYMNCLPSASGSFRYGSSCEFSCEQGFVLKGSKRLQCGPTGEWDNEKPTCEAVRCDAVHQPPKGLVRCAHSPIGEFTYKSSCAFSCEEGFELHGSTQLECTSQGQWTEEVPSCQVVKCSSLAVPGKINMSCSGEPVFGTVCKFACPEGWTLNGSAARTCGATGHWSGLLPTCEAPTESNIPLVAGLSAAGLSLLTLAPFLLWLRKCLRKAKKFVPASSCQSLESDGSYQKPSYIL
In words: Inhibition of E-selectin mediated adhesion of 3H-thymidine labelled U937 cells to E-selectin expressing CHO cells. Type of experiment: cell-based. Particulars: U937 binding to E-selectin expressing CHO cells, 4° C., 1 hour. As for the experimental part: The test compounds were assayed to determine their effectiveness at inhibiting E-selectin mediated adhesion between a leucocytic cell line, U937, which expresses ligands for E-selectin, and a Chinese Hamster Ovary cell line which stably expresses E-selectin. The assay has been validated with a commercial known ligand of the E-selectin, 3'-sialyl-3-fucosyl lactose (3S'3FL).
A 96 well plate was seeded with E-selectin expressing CHO cells which were confluent on the day of the assay.
U937 cells were incubated overnight with ^3 H thymidine. (Incubation conditions: 2×10^5 U937 cells per ml, 0.0751 μCi ^3 H thymidine).
Hanks Balanced salts solution, 25 mM HEPES, 0.1% azide.
The compounds were dissolved in 1 ml of assay medium. For E8, 10% methanol was added to achieve a homogenous solution.
The pH of the compounds was adjusted to approximately pH 7.2.
The ^3 H thymidine count value at each concentration of inhibitor is the average of six replicates. Maximum binding was measured by binding U937 cells to E-Selectin CHO cells in the absence of any test compounds.
Background was measured by U937 binding to untransfected CHO cells.
On the day of assay the 96 well plate was washed 3 times in ice cold assay medium. 50 μl of test sample was added to each well and incubated on ice for 1 hour. Meanwhile the U937 cells were washed 3 times in ice cold assay medium. resuspended at a concentration of 3×10^6 cells per ml and then 50 μl was added to each plate. The plates were kept on ice and allowed to incubate at 4° C. for 1 hour. Then they were washed ×3 and the remaining cells solubilised and the radioactivity in the samples counted.
The U937 cells that were used in the 1D2 control were pre-incubated in the presence of 0.1 mg/ml gammaglobulin before addition to the plate.

`CC(=O)N[C@H]1[C@H]([C@H](O)[C@H](O)CO)O[C@@](O[C@H]2[C@@H](O)[C@@H](CO)O[C@@H](O[C@H]3[C@H](O[C@@H]4O[C@@H](C)[C@@H](O)[C@@H](O)[C@@H]4O)[C@@H](O)C(O)O[C@@H]3CO)[C@@H]2O)(C(=O)O)C[C@@H]1O` (stereo partly shown) [3'S3FL, 3'-sialyl-3-fucosyl lactose, reference compound] came in with an inhibition at 500 µM (0.5 mM) of 54%.

In turn, `COC(=O)C1(OCCCC(=O)CC2(O)C(C)OC(OC)C(O)C2O)CC(O)C(NC(C)=O)C(C(O)C(O)CO)O1` [E7, α-O-Methyl-4R-[{5"N-acetyl-α2"-O-neuraminidylmethyl ester}-5'-oxy-2'-oxo-pent-1'-yl]-L-fucopyranoside] yielded an inhibition at 17100 µM (17.1 mM) of 65%.

Under “26.8 mM, 10% methanol added”, `COC1OC(C)C(O)(CC(=O)CCCOC2(C(=O)O)CC(O)C(NC(C)=O)C(C(O)C(O)CO)O2)C(O)C1O` [E8, α-O-Methyl-4R-[{N-acetyl-α2"-neuraminidylsodium carboxylate}5'-oxy-2'-oxo-pent-1'-yl]-L-fucopyranoside] came in with an inhibition at 26800 µM of 18.5%.

In turn, `COC(=O)C1(OCCCC=CC(O)CC2(O)C(C)OC(OC)C(O)C2O)CC(O)C(NC(C)=O)C(C(O)C(O)CO)O1` [E21, α-O-Methyl-4R-[{N-acetyl-α2"-neuraminidylmethyl}7'-oxy-2'R and S-hydroxy-hept-3'-en-1'-yl]-L-fucopyranoside] returned an inhibition at 30700 µM (30.7 mM) of 21%.

Usually inhibition stands for how much of the control response was suppressed. A higher inhibition goes with a strong effect.

For the origin of these results see patent publication US5703059A, “Disaccharide ligands for selectins” (British Biotech Pharmaceuticals Ltd., priority 1993, dated 1997).
